# Measured values as given in patent US4421767A, “Compounds and methods for treating depression” (priority 1982, dated 1983).
# How the values were obtained:
# [1] = test system: heart rate and blood pressure responses to tyramine; test: Potentiation of tyramine response after 5 days oral MAO inhibitor in rats (Table I); format: in vivo, rat; conditions: 5 days, tyramine i.d.
# Experimental: (A) Rats were gavaged daily for 5 days with saline or 2-amino-4-fluoro-3-(3'-hydroxyphenyl)-3-butenoic acid (AFHBA) at dosages of 15.6, 62.5, 250, or 1000 μg/kg or with clorgyline at dosages of 1250 or 5000 μg/kg. On the 6th day, rats were anaesthetized and heart rate and blood pressure responses to tyramine (0.3-50 mg/kg) administered intraduodenally (i.d.) were determined. Additionally, monoamines and MAO activity were determined in various tissues including brain.
# [2] = test system: brain noradrenaline and 5-HT concentrations; test: Brain amine concentration after 5 days oral MAO inhibitor in rats (Table I); format: in vivo, rat; conditions: for Brain Amine Concentration, Noradrenaline / Brain Amine Concentration, 5-HT: 5 days
# Experimental: On the 6th day, rats were anaesthetized and heart rate and blood pressure responses to tyramine (0.3-50 mg/kg) administered intraduodenally (i.d.) were determined. Additionally, monoamines and MAO activity were determined in various tissues including brain.
# [3] = test system: dopamine, DOPAC, 5-HT, and 5-HIAA concentrations in the brain; test: In vivo brain dopamine, DOPAC, 5-HT and 5-HIAA concentrations after oral dosing in rats; design: species or system rat; conditions: 18 hours
# Experimental: In a separate experiment, rats were given AFHBA orally at various doses. The rats were killed 18 hours later and dopamine, DOPAC, 5-HT, and 5-HIAA concentrations were determined in the brain.
# [4] = test system: dopamine, DOPAC, 5-HT, and 5-HIAA concentrations in the brain; test: In vivo brain dopamine, DOPAC, 5-HT and 5-HIAA concentrations after i.p. injection in rats; design: species or system rat
# Experimental: Rats were injected with AFHBA (0.5 mg/kg, i.p.) alone or with AFHBA (0.5 mg/kg, i.p.) in combination with MFMD (2 mg/kg, i.p.) or carbidopa (50 mg/kg, i.p.) given 30 minutes before the AFHBA. The rats were killed 18 hours later, and dopamine, DOPAC, 5-HT, and 5-HIAA concentrations were determined in the brain.
# [5] = test system: non-neuronal MAO; test: Ex vivo brain MAO activity after oral gavage in rats, non-neuronal MAO; design: species or system rat; conditions: 18 hours
# Experimental: (§1) MAO activity was determined in the brain using 5-HT and phenethylamine (PEA) as substrates.
# [6] = test system: neuronal MAO; test: Ex vivo MAO activity after i.p. injection in rats, neuronal MAO; design: species or system rat
# Experimental: (§2) Rats were injected with AFHBA (0.5 mg/kg, i.p.) alone or with AFHBA (0.5 mg/kg, i.p.) in combination with MFMD (2.0 mg/kg, i.p.) administered 30 minutes before AFHBA. Animals were killed 18 hours later and MAO activity (5-HT and phenethylamine as substrates) was determined in brain, heart, and liver. In the brain, AFHBA administered alone inhibited neuronal MAO by 72% and non-neuronal MAO by 37%.
# (§3) III. Rats were injected with AFMBA (100 mg/kg, i.p.) and were killed 18 hours later. MAO activity was determined in the brain, heart, and liver using 5-HT and PEA.
# [7] = test system: MAO; test: Ex vivo MAO activity in rats, protection by extracerebral AADC inhibitor; design: species or system rat; conditions: AFHBA 0.5 mg/kg i.p. + MFMD 2.0 mg/kg i.p. 30 min before, liver
# Experimental: as §2, §1
# [8] = test system: neuronal MAO; test: Ex vivo brain MAO activity after oral gavage in rats, neuronal MAO; design: species or system rat; conditions: 18 hours
# Experimental: as §1
# [9] = test system: non-neuronal MAO; test: Ex vivo MAO activity after i.p. injection in rats, non-neuronal MAO; design: species or system rat
# Experimental: as §2, §3
# [10] = In vitro decarboxylation by partially purified hog kidney AADC (HPLC); format: in vitro ADME; conditions: pig; hog kidney AADC, 37°, 2 hours, DL-mixture, HPLC; read-out: decarboxylation to the corresponding allylamine
# Experimental: (§4) AFHBA was incubated with partially purified hog kidney AADC at 37° for various times up to 2 hours.
# [11] = test system: partially purified hog kidney AADC; test: as above; format: in vitro ADME; conditions: with 10 μM MFMD (AADC inhibitor)
# Experimental: as §4
# [12] = test system: brain noradrenaline and 5-HT concentrations; test: Brain amine concentration, AFHBA with or without carbidopa pretreatment in rats (Table II); format: in vivo, rat; conditions: for Brain Amine Concentration, 5-HT / Brain Amine Concentration, Noradrenaline: 5 days
# Experimental: (B) Rats were gavaged with saline or carbidopa given at dosage of 10 or 100 mg/kg. Thirty minutes later, the rats were gavaged with saline or AFHBA given at a dosage of 62.5 μg/kg. This treatment was repeated daily for 5 days. On the 6th day, the rats were anaesthetized and heart rate and blood pressure responses to tyramine (0.3-50 mg/kg, i.d.) were determined. Additionally, monoamines and MAO activity were determined in various tissues, including brain.
# [13] = test system: MAO; test: In vitro MAO inhibition; format: biochemical
# [14] = AFHBA 0.5 mg/kg i.p. + MFMD 2 mg/kg i.p. 30 min before
# [15] = AFHBA 0.5 mg/kg i.p. + carbidopa 50 mg/kg i.p. 30 min before
# [16] = AFHBA alone 0.5 mg/kg i.p., 18 hours
# [17] = AFHBA 0.5 mg/kg i.p. + MFMD 2.0 mg/kg i.p. 30 min before, brain
# [18] = AFHBA 0.5 mg/kg i.p. + MFMD 2.0 mg/kg i.p. 30 min before, heart
# [19] = AFHBA alone 0.5 mg/kg i.p., 18 hours, brain
# [20] = AFHBA alone 0.5 mg/kg i.p., 18 hours, heart
# [21] = AFHBA alone 0.5 mg/kg i.p., 18 hours, liver
# [22] = carbidopa 10000 μg/kg + AFHBA 62.5 μg/kg daily p.o.
# [23] = carbidopa 100000 μg/kg + AFHBA 62.5 μg/kg daily p.o.
# [24] = saline + AFHBA 62.5 μg/kg daily p.o.
structure (smiles),measurement,setting,value
"NC(C(=O)O)C(=CF)c1cccc(O)c1 (racemic) [AFHBA, 2-Amino-4-fluoro-3-(3'-hydroxyphenyl)-3-butenoic acid]",Tyramine Potentiation,"[1]; AFHBA 15.6 μg/kg daily p.o., some potentiation at lowest doses of tyramine (footnote c)",1.0
same,Tyramine Potentiation,[1]; AFHBA 62.5 μg/kg daily p.o.,4.0
same,Tyramine Potentiation,[1]; AFHBA 250 μg/kg daily p.o.,7.1
same,Tyramine Potentiation,[1]; AFHBA 1000 μg/kg daily p.o.,7.7
same,"Brain Amine Concentration, Noradrenaline","[2]; AFHBA 15.6 μg/kg daily p.o., saline 318 ± 12",347 ± 9 ng/g
same,"Brain Amine Concentration, 5-HT","[2]; AFHBA 15.6 μg/kg daily p.o., saline 507 ± 18",530 ± 27 ng/g
same,"Brain Amine Concentration, 5-HT",[2]; AFHBA 62.5 μg/kg daily p.o.,531 ± 32 ng/g
same,"Brain Amine Concentration, Noradrenaline",[2]; AFHBA 62.5 μg/kg daily p.o.,391 ± 12 ng/g
same,"Brain Amine Concentration, 5-HT",[2]; AFHBA 250 μg/kg daily p.o.,1082 ± 98 ng/g
same,"Brain Amine Concentration, Noradrenaline",[2]; AFHBA 250 μg/kg daily p.o.,563 ± 23 ng/g
same,"Brain Amine Concentration, 5-HT",[2]; AFHBA 1000 μg/kg daily p.o.,1486 ± 67 ng/g
same,"Brain Amine Concentration, Noradrenaline",[2]; AFHBA 1000 μg/kg daily p.o.,650 ± 29 ng/g
same,brain noradrenaline and 5-HT concentrations (dose relation),[2]; subacute treatment,dose-related increases in brain noradrenaline and 5-HT concentrations
same,"% Change from Control, 5-HIAA",[3]; 0.5 mg/kg oral,-11%
same,"% Change from Control, 5-HT",[3]; 0.5 mg/kg oral,+26%
same,"% Change from Control, DOPAC",[3]; 0.5 mg/kg oral,-55%
same,"% Change from Control, 5-HIAA",[3]; 1.0 mg/kg oral,-23%
same,"% Change from Control, 5-HT",[3]; 1.0 mg/kg oral,+74%
same,"% Change from Control, DOPAC",[3]; 1.0 mg/kg oral,-72%
same,"% Change from Control, Dopamine",[3]; 1.0 mg/kg oral,+17%
same,"% Change from Control, 5-HIAA",[3]; 2.5 mg/kg oral,-41%
same,"% Change from Control, 5-HT",[3]; 2.5 mg/kg oral,+140%
same,"% Change from Control, DOPAC",[3]; 2.5 mg/kg oral,-79%
same,"% Change from Control, Dopamine",[3]; 2.5 mg/kg oral,+28%
same,"% Change from Control, 5-HIAA",[4]; [14],-48%
same,"% Change from Control, 5-HT",[4]; [14],+92%
same,"% Change from Control, DOPAC",[4]; [14],-92%
same,"% Change from Control, Dopamine",[4]; [14],+50%
same,"% Change from Control, 5-HIAA",[4]; [15],-37%
same,"% Change from Control, 5-HT",[4]; [15],+92%
same,"% Change from Control, DOPAC",[4]; [15],-89%
same,"% Change from Control, Dopamine",[4]; [15],+54%
same,"% Change from Control, 5-HIAA",[4]; [16],-34%
same,"% Change from Control, 5-HT",[4]; [16],+30%
same,"% Change from Control, DOPAC",[4]; [16],-76%
same,"% Change from Control, Dopamine",[4]; [16],+25%
same,"% Inhibition of MAO, Non-neuronal",[5]; 0.5 mg/kg oral,41%
same,"% Inhibition of MAO, Non-neuronal",[5]; 1.0 mg/kg oral,64%
same,"% Inhibition of MAO, Non-neuronal",[5]; 2.5 mg/kg oral,83%
same,"inhibition of neuronal MAO, brain, MFMD pretreatment",[6]; [17],68%
same,"inhibition of neuronal MAO, heart, MFMD pretreatment",[6]; [18],18%
same,"inhibition of neuronal MAO, brain",[6]; [19],72%
same,"inhibition of neuronal MAO, heart",[6]; [20],52%
same,"MAO inhibition, liver (neuronal)",[6]; [21],29%
same,"MAO inhibition, liver, MFMD pretreatment",[7],totally blocked MAO inhibition
same,"% Inhibition of MAO, Neuronal",[8]; 0.5 mg/kg oral,63%
same,"% Inhibition of MAO, Neuronal",[8]; 1.0 mg/kg oral,71%
same,"% Inhibition of MAO, Neuronal",[8]; 2.5 mg/kg oral,95%
same,"inhibition of non-neuronal MAO, brain, MFMD pretreatment",[9]; [17],28%
same,"inhibition of non-neuronal MAO, heart, MFMD pretreatment",[9]; [18],4%
same,"inhibition of non-neuronal MAO, brain",[9]; [19],37%
same,"inhibition of non-neuronal MAO, heart",[9]; [20],44%
same,"MAO inhibition, liver (non-neuronal)",[9]; [21],38%
same,metabolised at 2 h,[10],50%
same,decarboxylation in the presence of MFMD,[11],no decarboxylation was observed
same,"effect on brain monoamines, combination versus single agents",[12]; AFHBA 62.5 μg/kg + carbidopa 10 mg/kg,at least equivalent to 250 μg/kg of AFHBA given alone or to 5000 μg/kg of clorgyline
same,"Brain Amine Concentration, 5-HT",[12]; [22],894 ± 25 ng/g
same,"Brain Amine Concentration, Noradrenaline",[12]; [22],694 ± 24 ng/g
same,"Brain Amine Concentration, 5-HT",[12]; [23],815 ± 35 ng/g
same,"Brain Amine Concentration, Noradrenaline",[12]; [23],327 ± 23 ng/g
same,"Brain Amine Concentration, 5-HT",[12]; [24],531 ± 32 ng/g
same,"Brain Amine Concentration, Noradrenaline",[12]; [24],391 ± 12 ng/g
same,MAO inhibition in vitro,[13],inactive or very weak inhibitor
